Source: publication PMC4776135, “Small Molecule Inhibition of Ligand-Stimulated RAGE-DIAPH1 Signal Transduction” (Scientific Reports, 2016)

Experiments:
[1] = test system: Il6 mRNA in primary murine aortic endothelial cells (MAECs); assay: CML-AGE-mediated upregulation of Il6 mRNA, real-time quantitative PCR; assay type: cell-based; conditions: 1 µM compound 1.5 h, CML-AGE 10 µg/ml 6 h
Experimental: First, we tested the effects of RAGE ligand CML-AGE in primary murine aortic endothelial cells (MAECs). […] To assess the effects of the compounds, we pre-treated MAECs for 1.5 h with compounds 1–13 (1 μM).
Figure 5 Effects of compounds 1–13 on RAGE ligand-stimulated inflammatory gene expression in primary murine aortic endothelial cells and human THP-1 cells. Primary murine aortic endothelial cells (a,b) or human THP1 cells (c,d) were subjected to 1.5 h incubation with compounds 1–13 (1 μM) followed by stimulation with CML-AGE (10 μg/ml) for 6 h. Cells were then harvested and gene expression of the inflammatory markers Tnfα and Il6 normalized to β-actin (a,b) or 18s rRNA (c,d) was performed. Assays were performed in triplicate and results are representative of three independent experiments. Error bars represent SEM. *indicates p < 0.05 comparing CML-AGE vs. CML-AGE and compound treatment ^#indicates p < 0.001 comparing CML-AGE vs. SFM vehicle (SFM).
(§1) Total RNA was extracted from cells and tissues using the RNeasy lipid kit (Qiagen, Hilden, Germany). cDNA was synthesized with MultiScribe reverse transcriptase (Applied Biosystems, Foster City, CA). Real-time quantitative PCR was performed using the TaqMan method (50 °C for 2 min, 95 °C for 10 min, and 40 cycles of 95 °C for 15 s and 60 °C for 1 min) with premade primer sets (Applied Biosystems). The relative abundance of transcripts was normalized according to the expression of 18S rRNA (for human cells) or β-actin (for murine cells and tissues) using the ΔΔCt method. Supplementary Table S4 lists the specific primers used in the outlined studies.

[2] = test system: phospho/total ERK1/2 in primary murine aortic SMCs; assay: CML-AGE-stimulated ERK1/2 phosphorylation, Western blot; assay type: cell-based; conditions: 1 µM compound, 1.5 h pretreatment; CML-AGE 10 µg/ml 20 min; p < 0.05
Excerpt: (§2) We tested the effects of compounds 1–13 on cellular signaling in primary murine aortic SMCs. […] In primary murine aortic SMCs, we tested the effects of CML-AGE RAGE ligand on Akt and ERK1/2 phosphorylation, as these pathways are seminally linked to fundamental properties of these cells and their responses to stress, such as growth, proliferation, hypertrophy, migration, and survival.
(§3) Figure 3 Effects of compounds 1–13 on RAGE ligand-stimulated phosphorylation of ERK and AKT in primary murine aortic SMCs. Primary murine SMCs were incubated with compounds 1–13 (1 μM) for 1.5 h and then treated with RAGE ligand CML-AGE (10 μg/ml) for 20 minutes. Cells were harvested and total lysates were subjected to Western blotting with antibodies against phospho-ERK and phospho-AKT. Blots were then re-probed with antibodies to total-ERK and total-AKT and relative optical density (ROD) is reported. (a) Quantified levels of phosphorylated/total ERK normalized to total ERK are shown. (b) Quantified levels of phosphorylated/total AKT normalized to total AKT are shown. Assays results shown are representative of three independent experiments. Error bars represent SEM. *indicates p < 0.05 comparing CML-AGE vs. CML-AGE and compound treatment and ^#indicates p < 0.001 comparing CML-AGE vs. serum free medium (SFM) alone vehicle. Above each Western blot, S = serum-free medium and C = CML-AGE; numbers above the blots indicate the compound number.
(§4) Total protein extracts were prepared from primary murine aortic smooth muscle cells using cell lysis buffer (Cell Signaling Technology, Beverly, MA). Equal amounts of protein (30 μg/sample) were subjected to SDS-PAGE (4–12%) followed by electrophoretic transfer to nitrocellulose membranes. Nonspecific binding was blocked by incubation of membranes with BSA (5%) for 1 h. The blot was incubated with one of the following antibodies as the primary antibody for the reaction: anti-phospho-ERK1/2 (P-ERK1/2) IgG, anti-total-ERK1/2 (T-ERK1/2) IgG, anti-phospho-AKT (P-AKT) IgG, and anti-total-AKT (T-AKT) IgG (Cell Signaling Technology). Each primary antibody was used at a dilution of 1:1,000 overnight at 4 °C according to the manufacturer’s instructions. Horseradish peroxidase-conjugated secondary antibodies (1:2,500; Amersham Biosciences) were used to identify sites of binding of each primary antibody.
(§5) Murine vascular SMCs were cultured from the aortas of 10-week old male mice using a modification of the procedure of Travo and Barret[68]. SMCs were cultured following an explant protocol in accordance with institutional guidelines. Wild-type murine aortic vascular SMCs were isolated and used between passages 8 to 12. Human aortic vascular smooth muscle cells were purchased from American Type Culture Collection (ATCC, Manassas, VA) and cultured according to the methods recommended by ATCC. Murine primary aortic endothelial cells were from 6- to 8-week-old wild-type C57BL/6J mice (Jackson Laboratories, Bar Harbor ME) and used under passage 10[69]. THP-1 cells were obtained from the American Type Tissue Collection (ATCC, Manassas VA) and used according to the manufacturer’s instructions.

Tnfa mRNA in kidney = assay: CML-AGE infusion in vivo, kidney Tnfa mRNA; set-up: species or system C57BL/6J mice; conditions: mice; four doses 5 mg/kg i.p. every 12 h; CML-AGE 150 µg i.p.; kidney 4 h later; p < 0.05
Experimental: Next, it was essential to test the ability of the thirteen compounds to block RAGE ligand-mediated inflammation in vivo. […] To test this concept in the present study, we treated wild-type mice with CML-AGE (150 μg) by intraperitoneal injection after pretreatment with four doses of compounds 1–13 (5 mg/kg per dose, 12 h apart). Thirty minutes after the fourth dose of compound, mice were injected with CML-AGE and sacrificed 4 h later. Kidney tissue was retrieved and subjected to real-time quantitative PCR for detection of transcripts encoding inflammatory mediators.
Figure 6 Effect of compounds 1–13 in vivo. (a,b) C57BL/6J mice were subjected to intraperitoneal administration of four doses of compounds 1–13 (5 mg/kg every 12 h) or equal volumes of vehicle (PBS). Thirty minutes after the final injection, mice were injected with CML-AGE (150 μg) by intraperitoneal administration. Four h later, mice were sacrificed and kidney was retrieved. Real time quantitative PCR was performed for detection of Tnfa (a) and Il6 (b). (c) Assessment of compounds on cardiac functional recovery in diabetes. C57BL/6 mice were rendered type 1 diabetic with streptozotocin. After a mean range of 37–45 days of untreated hyperglycemia, mice were sacrificed and hearts rapidly retrieved for assessment of the efficacy of compounds 1–13 (1 μM) or vehicle, DMSO, on left ventricular developed pressure (LVDP) after ischemia. All hearts were subjected to 30 minutes of global ischemia followed by 60 min of reperfusion. Test compounds were introduced 10 minutes prior to the start of ischemia and continued throughout the reperfusion protocol. In (a–c), N = 5–6 mice per group. Error bars represent SEM. In (a–c), *indicates p < 0.05 vs. respective control, and in (a,b), ^#indicates p < 0.001 comparing CML-AGE vs. PBS treatment.
as §1
Male, wild-type C57BL/6J mice were purchased from the Jackson Laboratories. At age 8 weeks, mice were pretreated with 4 doses of compounds 1–13, 5 mg/kg, by intraperitoneal administration twice daily for a total of two days and four total doses. Control treatment consisted of DMSO diluted into PBS. Thirty minutes after the last dose, CML-AGE (150 μg) was injected by intraperitoneal route. 4 h later, mice were sacrificed and kidney tissue was rapidly retrieved for preparation of mRNA and performance of real time quantitative PCR for the following mRNA transcripts, Tnfa and Il6.

[3] = test system: phospho/total Akt in primary murine aortic SMCs; assay: CML-AGE-stimulated Akt phosphorylation, Western blot; assay type: cell-based; conditions: 1 µM compound, 1.5 h pretreatment; CML-AGE 10 µg/ml 20 min; p < 0.05
Excerpt: as §2, §3, §4, §5

[4] = test system: diabetic mouse heart (ex vivo); assay: Isolated perfused diabetic heart, ischemia/reperfusion, LVDP recovery; set-up: species or system C57BL/6 mice; conditions: streptozotocin-diabetic mouse hearts ex vivo; 1 µM compound; 30 min ischemia, 60 min reperfusion; p < 0.05
Experimental: Figure 6 Effect of compounds 1–13 in vivo. (a,b) C57BL/6J mice were subjected to intraperitoneal administration of four doses of compounds 1–13 (5 mg/kg every 12 h) or equal volumes of vehicle (PBS). Thirty minutes after the final injection, mice were injected with CML-AGE (150 μg) by intraperitoneal administration. Four h later, mice were sacrificed and kidney was retrieved. Real time quantitative PCR was performed for detection of Tnfa (a) and Il6 (b). (c) Assessment of compounds on cardiac functional recovery in diabetes. C57BL/6 mice were rendered type 1 diabetic with streptozotocin. […]
Finally, we tested the effects of these compounds in settings in which RAGE ligands naturally accumulate, particularly the diabetic heart. […] At the end of reperfusion, we measured left ventricular developed pressure (LVDP) in the hearts, a key measure of functional recovery after injury.
Male C57BL/6 mice, age 8–12 weeks, were purchased from The Jackson Laboratory and rendered diabetic by 55 mg/kg by intraperitoneal route of streptozotocin (STZ) (Sigma Aldrich, St. Louis MO) per day in fresh citrate buffer (0.05 mol/l; pH 4.5) for 5 consecutive days. […] Left ventricular developed pressure (LVDP) was measured using a latex balloon in the left ventricle and monitored continuously on an ADI recorder. […]

Compound	effect on CML-AGE-mediated upregulation of Il6 [1]	effect on CML-AGE-mediated phospho/total ERK1/2 [2]	effect on CML-AGE-mediated upregulation of Tnfa mRNA in kidney (Tnfa mRNA in kidney)	effect on CML-AGE-mediated stimulation of phospho/total-Akt [3]	left ventricular developed pressure (LVDP) functional recovery after ischemia/reperfusion vs DMSO vehicle [4]
C=CCOc1ccc2c(C(F)(F)F)cc(=O)oc2c1 [Compound 2]	significant suppression	significant suppression	significant suppression	significant suppression	
Cc1nc2ccccc2n1CC(O)Cn1c2ccccc2c2ccccc21 (centres unmarked) [Compound 3]	significant suppression	significant suppression	significant suppression	significant suppression	statistically-significantly higher LVDP
COc1cc(NC(C)=O)c(Cl)cc1C(=O)Nc1nccs1 [Compound 6]	significant suppression	did not significantly affect	significant suppression	significant suppression	
COc1cc(SC)ccc1C(=O)Nc1cccc(C)n1 [Compound 1]	significant suppression	significant suppression	significant suppression	significant suppression	
Cc1ccc(S(=O)(=O)N(C)C(F)F)cc1 [Compound 8]	significant suppression	did not significantly affect	significant suppression	did not significantly suppress	
OC(Cn1ccc2ccccc21)Cn1cnc2ccccc21 (centres unmarked) [Compound 4]	significant suppression	significant suppression		significant suppression	
Cl.Oc1cccc(Nc2nc(-c3ccc(F)cc3F)cs2)c1 [Compound 5]	significant suppression	significant suppression	significant suppression	did not significantly suppress	
COC(=O)c1cc(OC)c(OC)cc1NC(=O)C1Oc2ccccc2OC1C (centres unmarked) [Compound 7]	significant suppression	did not significantly affect		did not significantly suppress	statistically-significantly higher LVDP
